Data on one compound can be found in US6989375B2, “Enhanced expression of transgenes” (priority 1996, dated 2006).

One assay deals with H1299 cells. The assay can be described thus: β-gal expression after gene delivery with Ad/PLL/DNA complex or lipofectamine in CDDP-treated cells. Type of assay: cell-based, human. To be noted: 48 hrs after CDDP removal. The method, then: Gene Transfer Vectors: The recombinant adenovirus carrying the Escherichia coli β-galactosidase gene under the control of the human cytomegalovirus enhancer/promotor (Ad/CMV/β-gal) or the replication defective adenovirus were propagated on 293 cells and purified and stored using techniques previously reported (Nguyen et al., 1996). Viral titer was determined by UV spectrophotometric analysis (Nguyen et al., 1996a; 1996b). To determine if the CDDP-induced enhancement of gene expression would be dependent on the method of gene delivery, two other gene delivery systems were used: the Ad/PLL/DNA complex (Nguyen et al., 1996a; 1996b) and cationic liposomes (Lipofectamine, Gibco BRL). CDDP (0.062 μg/ml)-treated H1299 cells were incubated with either gene delivery system carrying a plasmid that contained the β-gal gene under the control of the CMV enhancer/promotor (CMV/β-gal) 48 hours after drug removal. Plasmid DNA was isolated by the alkaline lysis technique and purified by using Qiagen DNA purification kits (Qiagen, Chatsworth, Calif.). Plasmid containing liposome preparations and gene transfer were performed according to the manufacturer's protocol. The conjugated Ad/PLL/DNA complex was constructed and used to deliver the β-gal gene to H1299 and H460 cells as described elsewhere (Nguyen et al., 1996a; 1996b).

Assay [1] has as its system p53 protein in H1299 cells. In words: Western blot analysis of p53 protein expression with densitometry. Type of assay: cell-based, human. To be noted: CDDP = prior CDDP exposure, Adv/CMV/p53 = without prior CDDP. The method, then: H1299 cells were infected with Ad/CMV/p53 (MOI=1) 48 hrs after CDDP exposure. Cells were then harvested at 6, 12, 24, 36 and 48 hrs after transfection for Western blot analysis of p53 protein expression, as described elsewhere (Diller et al., 1990). Unexposed cells similarly transfected with Ad/CMV/p53 were used as controls. The human NSCLC cell line H322 which overexpresses mutant p53 protein was used as a positive control. Relative quantities of exogenous p53 protein were determined by densitometer (Molecular Dynamics, Sunnyvale, Calif.).

Assay [2] has as its system H460 cells. In words: Cell growth after 24-hour incubation with CDDP. The assay is classed as cell-based, human.
Assay [3] concerns H460 cells. In words: β-gal expression by X-gal staining after Ad/CMV/β-gal infection of CDDP-treated cells. Type of assay: cell-based, human. The protocol: (§1) Gene Delivery Protocol: In vitro gene delivery was performed by incubating cells in six-well plates (Falcon Plastics, Lincoln Park, N.J.) for two hours with Adv/CMV/β-gal in appropriate medium supplemented with 2% FCS. The multiplicity of infection (MOI: number of viral particles per target cell) was based on cell counts of untreated wells. Fresh, complete medium with the appropriate concentration of FCS was then added to the wells at the end of the infection period and cells were then incubated for 20 hours at 37° C., 5% CO2. After washing the cells with ice cold PBS, the cells were fixed with ice-cold 1.25% glutaraldehyde and stained with X-gal (5-bromo-4-chloro-3-indolyl-β-d-galactoside; Gibco BRL) as previously described (MacGregor et al., 1987). The transduction efficiency by Adv/CMV/β-gal was determined by the percentage of positive stained cells (blue) for β-galactosidase activity (1000 cells counted per well).
Time Course and Dose Response: To determine the time course of enhancement, H1299 and H460 cells were seeded in 6-well plates (2×10^5 cells/2 mls/well). After an overnight incubation period (37° C., 5% CO2), the initial medium was replaced with freshly prepared media (2 ml) containing 0.062 μg/ml CDDP (Sigma Chemicals, St. Louis, Mo.) (CDDP was prepared fresh by dissolving in distilled water) and the cells were then incubated for 24 hours at 37° C., with 5% CO2. CDDP-treated cells were then washed twice with PBS and subsequently infected with Ad/CMV/β-gal (MOI=1 for H1299 and MOI=5 for H460) on days 0, 1, 2, 3, 4, 5 or 6 following CDDP removal, to determine the time point at which maximal enhancement of expression was occurring. To establish the dose of CDDP needed to produce maximum enhancement, the cells were treated with different concentrations of CDDP (serial, 1:4 dilutions, ranging from 4 μg/ml to 0.0002 μg/ml, 5 ml per 60 mm dish) for 24 hours and subsequently incubated with Ad/CMV/β-gal 48 hours after removal of CDDP. […]

The test system of assay [4] is CDDP-resistant ovarian carcinoma cells (2008). The settings on record: CDDP four to six weeks prior (in vitro) or once one week prior (in vivo); cited from earlier work.
Another assay deals with A549. In words: β-gal expression by X-gal staining after Ad/CMV/β-gal infection of CDDP-treated cells. Type of assay: cell-based, human. The settings on record: gene transfer 48 hours after exposure to 0.062 μg/ml of CDDP; MOI=10. The protocol: (§2) The human non-small cell lung carcinoma cell lines H1299 and H460 were grown in RPMI-1640 medium supplemented with 5% heat-inactivated fetal calf serum (FCS), 10 mM glutamine, 100 units/ml of penicillin, 100 μg/ml of streptomycin and 0.25 μg/ml of amphotericin B. Human non-small cell lung carcinoma cell lines H358, H226br, and the cervical cancer cell line SiHa were maintained in complete RPMI-1640 medium supplemented with 10% FCS. The cell line A549 (human, non-small cell lung carcinoma) was grown in Ham's F12 nutrient mixture solution (Gibco BRL, Gaithersburg, Md.) similarly supplemented with antibiotics, glutamine and 10% FCS.
as §1, with “After washing the cells with ice cold PBS, the cells were fixed with ice-cold 1.25% glutaraldehyde and stained with X-gal (5-bromo-4-chloro-3-indolyl-β-d-galactoside; Gibco BRL) as previously described (MacGregor et al., 1987).” left out

In assay [5] the test system is primary normal human bronchial epithelial (NHBE) cells. The assay can be described thus: β-gal expression by X-gal staining after Ad/CMV/β-gal infection of CDDP-treated normal cells. The assay is classed as cell-based. The settings on record: CDDP 0.062 μg/ml; 90% confluent. The protocol:
as §2
as §1, with “After washing the cells with ice cold PBS, the cells were fixed with ice-cold 1.25% glutaraldehyde and stained with X-gal (5-bromo-4-chloro-3-indolyl-β-d-galactoside; Gibco BRL) as previously described (MacGregor et al., 1987).” left out

Assay [6] has as its system primary human foreskin fibroblasts. The settings on record: 16 to 20 hours exposure to high concentrations, followed immediately by transduction; cited from earlier work.

Turning to `N.N.[Cl][Pt][Cl]` [CDDP, cis-dichlorodimminocisplatin], the “β-gal gene expressing cells compared with adenovirus-mediated gene transfer” value in the assay with H1299 cells (cationic phospholipid lipofectamine carrying CMV/β-gal plasmid) and in the assay on H1299 cells (conjugated Ad/PLL/DNA complex carrying CMV/β-gal plasmid) was “same magnitude” each time. The “Relative level of p53 protein (normalized for β-actin)” value in assay [1] (12 hrs after Adv/CMV/p53 transfection (MOI=1)) is reported as 0.73; in assay [1] (24 hrs after Adv/CMV/p53 transfection (MOI=1)), 1.39; in assay [1] (36 hrs after Adv/CMV/p53 transfection (MOI=1)), 1.49; in assay [1] (48 hrs after Adv/CMV/p53 transfection (MOI=1)), 1.20. In addition, the “Cell growth, initial response” value in the assay with H460 cells [2] (CDDP at 1 and 4 μg/ml for 24 hours, cells viable by trypan blue exclusion) is “significant depression of growth to complete inhibition of proliferation”. The “Cell growth compared to control cell populations” value in the assay with H460 cells [2] (CDDP concentrations lower than 0.25 μg/ml) is listed as “remained unchanged”. In addition, in the assay with H460 cells [3] (24 h exposure, infected 48 hours after CDDP removal), the “CDDP concentration at which maximal enhancement of β-gal gene expression occurred” value turned out to be 0.062 µg/mL. The “Time of gene transfer after drug treatment for maximal enhancement” value in the assay with H460 cells [3] (CDDP 0.062 μg/ml) is given as “about 48 hours”. The “Enhancement of β-gal gene expression” value with H460 cells [3] (CDDP at 0.0039 and 1 μg/ml, infected 48 hours after CDDP removal) is “also an enhancement”. The “Gene transduction after CDDP exposure prior to liposome-mediated gene transfer” value in assay [4] was “enhanced gene transduction”. Besides, the “Magnitude of maximal enhancement of transgene expression (FIG. 4B)” value with A549 is listed as 1.6 fold. For the same compound, the “Enhancement of gene expression in stationary normal cells” value in assay [5] is on record as “failed to enhance gene expression”. Besides, the “Susceptibility to AAV transduction” value in assay [6] is recorded as “more susceptible to transduction”.
